Columns and labels:
Type in all cases: functional, Mus musculus
M109 [1] = assay: In vivo antitumor activity in M109 (Murine lung carcinoma cells) tumor model after (ip) administration on days 5 and 8 at dose of 140 mg/kg/injection.
M109 [2] = assay: In vivo antitumor activity in M109 (Murine lung carcinoma cells) tumor model after (ip) administration on days 5 and 8 at dose of 70 mg/kg/injection.
M109 [3] = assay: In vivo antitumor activity of the taxol was determined in M109 (Murine lung carcinoma cells) tumor model after (ip) administration in 10% Tween 80 in saline on days 5 and 8 at dose of 40 mg/kg/injection in presence of Taxol
M109 [4] = assay: In vivo antitumor activity in M109 (Murine lung carcinoma cells) tumor model after (ip) administration on days 1, 5,and 9 at dose of 100 mg/kg/injection.
M109 [5] = assay: In vivo antitumor activity of the taxol was determined in M109 (Murine lung carcinoma cells) tumor model after (ip) administration in 10% Tween 80 in saline on days1, 5, and 9 at a dose of 30 mg/kg/injection in presence of Taxol

Structure (SMILES) | T/C (M109 [1]) [%] | T/C (M109 [2]) [%] | T/C (M109 [3]) [%] | T/C (M109 [4]) [%] | T/C (M109 [5]) [%]
CC(=O)O[C@H]1C(=O)[C@]2(C)[C@@H](OC(=O)CC(C)(C)c3c(C)cc(C)cc3OP(=O)([O-])[O-])C[C@H]3OC[C@@]3(OC(C)=O)[C@H]2[C@H](OC(=O)c2ccccc2)[C@]2(O)C[C@H](OC(=O)[C@H](O)[C@@H](NC(=O)c3ccccc3)c3ccccc3)C(C)=C1C2(C)C.[Na+].[Na+] | 156 | 153 | 144 | – | –
CC(=O)O[C@H]1C(=O)[C@@]2(C)[C@H]([C@H](OC(=O)c3ccccc3)[C@]3(O)C[C@H](OC(=O)[C@H](OC(=O)CC(C)(C)c4c(C)cc(C)cc4OP(=O)([O-])[O-])[C@@H](NC(=O)c4ccccc4)c4ccccc4)C(C)=C1C3(C)C)[C@]1(OC(C)=O)CO[C@@H]1C[C@@H]2O.[Na+].[Na+] | – | – | – | 144 | 275

Reference: ChEMBL document CHEMBL1126541, “Novel water soluble phosphate prodrugs of taxol possessing in vivo antitumor activity” (1993)
